Data on 1 molecule can be found in paper PMC6934184, “Selective DNA-PKcs inhibition extends the therapeutic index of localized radiotherapy and chemotherapy” (The Journal of Clinical Investigation, 2019).

This experiment addresses T1, PIK3CG (p110 gamma) (Homo sapiens, UniProt P48736).
T1 construct: purchased Thermo Fisher Scientific (Life Technologies) SelectScreen
Nature of the experiment: SelectScreen Adapta. It counts as biochemical. How it is done:
The in vitro kinase selectivity of NU5455 was determined using the SelectScreen Broad Assay Panel (Thermo Fisher Scientific) involving activity and binding assays (Supplemental Table 1). […] Class IA PI3Ks were measured using the p85α subunit.
Kinase [ATP] % Assay Kinase [ATP] % Assay Kinase [ATP] % Assay Kinase [ATP] % Assay
DNA-PK Km app 98.3 Z LATS2 n/a 4.7 L KIT D820E n/a 1.3 L GSK3B (GSK3 beta) Km app -2.5 Z
PIK3C3 (hVPS34) Km app 85.9 A PRKCZ (PKC zeta) Km app 4.7 Z GRK1 n/a 1.3 L BMPR2 n/a -2.5 L
PIK3C2B (PI3K-C2 beta) 10 28.9 A FGFR1 Km app 4.7 Z BRSK2 n/a 1.2 L CDC42 BPB (MRCKB) Km app -2.5 Z
SNF1LK2 Km app 26.6 Z MINK1 Km app 4.6 Z NUAK1 (ARK5) Km app 1.2 A AMPK (A2/B2/G2) n/a -2.6 L
HCK Km app 18.0 Z CSF1R (FMS) Km app 4.3 Z CDK9/cyclin K n/a 1.0 L PRKG1 Km app -2.7 Z
NEK2 Km app 17.8 Z CSNK1G3 (CK1 gamma 3) Km app 4.2 Z NUAK2 n/a 1.0 L KIT T670E n/a -2.8 L
ALK Km app 17.3 Z STK32C (YANK3) n/a 4.2 L CDK2/cyclin O n/a 0.9 L ERBB4 (HER4) Km app -2.8 Z
FGFR3 K650M n/a 16.5 L STK22D (TSSK1) Km app 4.2 Z CAMKK2 (CaMKK beta) n/a 0.9 L PLK4 n/a -2.8 L
SIK3 n/a 16.1 L TAOK3 (JIK) n/a 4.2 L FGFR3 Km app 0.9 Z GRK7 Km app -3.0 Z
LYN A Km app 15.2 Z RPS6KA4 (MSK2) Km app 4.2 Z ULK2 n/a 0.9 L MAPKAPK2 Km app -3.1 Z
BMPR1B (ALK6) n/a 14.5 L PTK2B (FAK2) Km app 4.2 Z KIT D816V n/a 0.9 L FGFR4 Km app -3.1 Z
INSRR (IRR) Km app 14.1 Z CLK2 Km app 4.1 Z CAMK1 (CaMK1) 10 0.8 A CASK n/a -3.1 L
PLK2 Km app 14.1 Z STK24 (MST3) Km app 4.1 Z PTK6 (Brk) Km app 0.7 Z GRK5 Km app -3.2 Z
PRKACA (PKA) Km app 14.0 Z CAMK1D (CaMKI delta) Km app 4.1 Z CAMK2B (CaMKII beta) Km app 0.7 Z EGFR (ErbB1) T790M Km app -3.3 Z
EIF2AK2 (PKR) n/a 13.3 L INSR Km app 4.1 Z ACVR1 (ALK2) n/a 0.7 L PAK4 Km app -3.3 Z
PRKX Km app 12.5 Z IRAK1 Km app 4.0 A ABL1 H396P n/a 0.6 L DAPK3 (ZIPK) Km app -3.4 Z
FGR Km app 12.1 Z SRC N1 Km app 3.9 Z MERTK (cMER) A708S n/a 0.6 L RET M918T n/a -3.5 L
CLK1 Km app 11.7 Z SRPK2 Km app 3.9 Z MAPKAPK5 (PRAK) Km app 0.6 Z PRKCQ (PKC theta) Km app -3.7 Z
MARK3 Km app 11.4 Z RPS6KA6 (RSK4) Km app 3.8 Z AKT1 (PKB alpha) Km app 0.5 Z CAMKK1 (CAMKKA) n/a -3.8 L
PDGFRB (PDGFR beta) Km app 11.0 Z GRK6 Km app 3.7 Z NTRK3 (TRKC) Km app 0.4 Z FLT3 D835Y Km app -3.9 Z
PRKCN (PKD3) Km app 10.7 Z PKN1 (PRK1) Km app 3.6 Z ZAP70 Km app 0.3 Z ROCK2 Km app -4.1 Z
STK16 (PKL12) n/a 10.5 L MAP3K8 (COT) 100 3.5 Z CSNK1A1 (CK1 alpha 1) Km app 0.3 Z CHUK (IKK alpha) Km app -4.2 A
FES (FPS) Km app 10.4 Z FLT4 (VEGFR3) Km app 3.5 Z MYLK (MLCK) n/a 0.2 L AXL Km app -4.2 Z
ABL1 Km app 10.4 Z GRK4 Km app 3.5 Z MKNK2 (MNK2) n/a 0.2 L PIM2 Km app -4.3 Z
MUSK Km app 10.3 Z FRK (PTK5) Km app 3.4 Z AMPK (A1/B1/G3) n/a 0.2 L PAK1 Km app -4.4 Z
MAPK1 (ERK2) Km app 10.1 Z FYN A n/a 3.3 L MAP3K2 (MEKK2) n/a 0.1 L BMPR1A (ALK3) n/a -4.4 L
BRAF 100 9.9 Z CDK1/cyclin A2 n/a 3.3 L CDK8/cyclin C n/a 0.1 L STK4 (MST1) Km app -4.4 Z
IGF1R Km app 9.7 Z KIT V559D T670I n/a 3.1 L MARK2 Km app 0.1 Z PRKCH (PKC eta) Km app -4.6 Z
MAPK14 (p38 alpha) Km app 9.7 Z SPHK2 10 3.1 A ICK n/a 0.0 L SGKL (SGK3) Km app -4.6 Z
LCK Km app 9.6 Z FGFR3 G697C n/a 3.1 L FGFR2 Km app 0.0 Z PI4KB (PI4K beta) Km app -4.7 A
MAPK11 (p38 beta) Km app 9.5 Z RIPK2 n/a 3.1 L AKT2 (PKB beta) Km app 0.0 Z PRKCE (PKC epsilon) Km app -4.9 Z
SRC Km app 9.5 Z PAK6 Km app 3.0 Z EPHB2 Km app -0.1 Z PHKG1 Km app -5.0 Z
CHEK1 (CHK1) Km app 9.3 Z LYN B Km app 3.0 Z TGFBR2 n/a -0.1 L PDGFRA D842V Km app -5.0 Z
CAMK2D (CaMKII delta) Km app 9.3 Z DAPK2 n/a 2.9 L TEK (Tie2) Km app -0.1 Z PRKG2 (PKG2) Km app -5.1 Z
PLK1 Km app 9.2 Z EPHA4 Km app 2.9 Z AURKA (Aurora A) Km app -0.1 Z TYRO3 (RSE) Km app -5.1 Z
RET Y791F Km app 9.2 Z PIK3CG (p110 gamma) Km app 2.9 A KIT D816H n/a -0.2 L TAOK2 (TAO1) Km app -5.1 Z
FLT3 Km app 9.1 Z HIPK1 (Myak) Km app 2.8 Z KIT N822K n/a -0.2 L EPHB4 Km app -5.3 Z
MAPK10 (JNK3) 100 9.0 Z ADRBK2 (GRK3) Km app 2.8 Z PRKACG (PRKAC gamma) n/a -0.2 L AURKC (Aurora C) Km app -5.4 Z
CSNK2A2 (CK2 alpha 2) Km app 8.7 Z STK17B (DRAK2) n/a 2.7 L TEK (TIE2) Y1108F n/a -0.3 L JAK1 Km app -5.7 Z […]

T1 sequence (P48736 whole entry): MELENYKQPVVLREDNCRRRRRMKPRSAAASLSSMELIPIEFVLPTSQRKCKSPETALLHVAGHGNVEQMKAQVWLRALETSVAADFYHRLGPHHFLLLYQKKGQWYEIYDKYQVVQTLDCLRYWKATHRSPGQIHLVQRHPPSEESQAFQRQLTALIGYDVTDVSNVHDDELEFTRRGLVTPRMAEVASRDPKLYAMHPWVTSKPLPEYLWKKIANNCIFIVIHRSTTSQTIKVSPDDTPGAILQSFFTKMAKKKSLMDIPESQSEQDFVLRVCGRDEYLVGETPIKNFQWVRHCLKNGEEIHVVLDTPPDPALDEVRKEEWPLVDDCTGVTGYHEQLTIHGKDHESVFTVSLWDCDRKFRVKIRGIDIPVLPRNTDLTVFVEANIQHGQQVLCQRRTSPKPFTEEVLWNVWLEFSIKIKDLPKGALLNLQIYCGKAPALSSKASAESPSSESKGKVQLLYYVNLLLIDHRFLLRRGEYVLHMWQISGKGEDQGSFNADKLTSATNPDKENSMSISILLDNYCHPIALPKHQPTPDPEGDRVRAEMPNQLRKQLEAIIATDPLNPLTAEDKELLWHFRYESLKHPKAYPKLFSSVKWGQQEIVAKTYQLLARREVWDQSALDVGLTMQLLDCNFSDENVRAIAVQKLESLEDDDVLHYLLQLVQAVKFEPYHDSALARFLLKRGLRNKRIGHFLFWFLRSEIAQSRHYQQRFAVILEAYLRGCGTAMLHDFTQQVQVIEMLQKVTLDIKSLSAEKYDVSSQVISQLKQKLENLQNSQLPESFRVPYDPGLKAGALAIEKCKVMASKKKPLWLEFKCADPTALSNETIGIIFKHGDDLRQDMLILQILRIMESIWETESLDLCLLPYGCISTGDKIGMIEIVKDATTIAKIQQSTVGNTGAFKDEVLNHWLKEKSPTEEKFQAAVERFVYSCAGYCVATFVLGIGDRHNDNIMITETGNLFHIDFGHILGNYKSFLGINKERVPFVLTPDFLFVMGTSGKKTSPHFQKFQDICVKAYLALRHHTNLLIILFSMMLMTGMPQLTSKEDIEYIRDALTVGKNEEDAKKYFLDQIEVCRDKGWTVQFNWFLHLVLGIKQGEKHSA

A word on the inhibition: it is the relative decrease from the control value, in per cent. As for `CN(C(=O)CN1CCOCC1)c1ccc2sc3c(-c4cccc5c(=O)cc(N6CC7CCC(C6)O7)oc45)cccc3c2c1` [NU5455], the inhibition at 1 µM is 2.9%.
